Drawing on ChEMBL document CHEMBL5331079, “Novel thiazolidines of potential anti-proliferation properties against esophageal squamous cell carcinoma via ERK pathway” (Eur J Med Chem, 2023), this text covers IC50, inhibition and Activity for eleven compounds.

The source made the active and inactive calls. The calls are words filed in the database; no cut-off is given here.

Data set [1] relates to MCF7. The data set is described as follows: Antiproliferative activity against human MCF7 cells assessed as inhibition of cell growth incubated for 96 hrs by MTT assay. It counts as functional, cell-based. Particulars: MCF7, 96 h. For orientation: Formazan colour is commonly taken as a measure of viable cells.
Data set [2] concerns KYSE-30. Kind of data set: Antiproliferative activity against human KYSE-30 cells assessed as inhibition of cell growth incubated for 72 hrs by MTT assay. It counts as functional, cell-based. Particulars: KYSE-30, 72 h.
Data set [3] deals with KYSE-150 cell line. The data set is described as follows: Inhibition of cell growth in human KYSE-150 cell line at 10 uM incubated for 72 hrs by MTT assay relative to control. It counts as functional.
Data set [4] concerns KYSE-150 cell line. Kind of data set: Antiproliferative activity against human KYSE-150 cell line assessed as inhibition of cell growth incubated for 72 hrs by MTT assay. It counts as functional, cell-based. Particulars: KYSE-150, 72 h.
The nature of data set [5]: Antiproliferative activity against human HET-1A cells assessed as inhibition of cell growth incubated for 72 hrs by MTT assay. It counts as toxicity, cell-based.
The nature of data set [6]: Antiproliferative activity against human NES-G4T cells assessed as inhibition of cell growth incubated for 72 hrs by MTT assay. It counts as toxicity, cell-based.
For data set [7], the system named is KYSE-30. The data set is described as follows: Antiproliferative activity against human KYSE-30 cells assessed as reduction of cell viability at 1.25 to 100 uM incubated for 72 hrs by MTT assay. It counts as functional, cell-based. Particulars: dose 1.25-100 µM.
For data set [8], the system named is KYSE-150 cell line. Kind of data set: Antiproliferative activity against human KYSE-150 cell line assessed as reduction of cell viability at 1.25 to 100 uM incubated for 72 hrs by MTT assay. It counts as functional, cell-based. Particulars: dose 1.25-100 µM.
In data set [9] the test system is HET-1A. Kind of data set: Antiproliferative activity against human HET-1A cells assessed as reduction of cell viability at 1.25 to 100 uM incubated for 72 hrs by MTT assay. It counts as toxicity, cell-based. Particulars: dose 1.25-100 µM.
A short description of data set [10]: Antiproliferative activity against human NES-G4T cells assessed as reduction of cell viability at 1.25 to 100 uM incubated for 72 hrs by MTT assay. It counts as toxicity, cell-based. Particulars: dose 1.25-100 µM.
For data set [11], the system named is KYSE-30. Kind of data set: Induction of apoptosis in human KYSE-30 cells assessed as chromatin condensation at 10 uM incubated upto 72 hrs by DAPI staining based confocal laser scanner microscopy analysis. It counts as functional, cell-based.
Data set [12] has as its system KYSE-30. The data set is described as follows: Induction of apoptosis in human KYSE-30 cells assessed as nuclear fragmentation at 10 uM incubated upto 72 hrs by DAPI staining based confocal laser scanner microscopy analysis. It counts as functional, cell-based.
Data set [13] has as its system KYSE-30. The data set is described as follows: Induction of apoptosis in human KYSE-30 cells assessed as loss of nuclei integrity at 10 uM incubated for 72 hrs by DAPI staining based confocal laser scanner microscopy analysis. It counts as functional, cell-based.
In data set [14] the test system is KYSE-150 cell line. Kind of data set: Induction of apoptosis in human KYSE-150 cell line assessed as chromatin condensation at 10 uM incubated upto 72 hrs by DAPI staining based confocal laser scanner microscopy analysis. It counts as functional.
For data set [15], the system named is KYSE-150 cell line. The data set is described as follows: Induction of apoptosis in human KYSE-150 cell line assessed as nuclear fragmentation at 10 uM incubated upto 72 hrs by DAPI staining based confocal laser scanner microscopy analysis. It counts as functional.
Data set [16] has as its system KYSE-150 cell line. The data set is described as follows: Induction of apoptosis in human […] cell line assessed as loss of nuclei integrity at 10 uM incubated for 72 hrs by DAPI staining based confocal laser scanner microscopy analysis. It counts as functional.
For data set [17], the system named is KYSE-150 cell line. The data set is described as follows: Induction of apoptosis in human KYSE-150 cell line assessed as downregulation of ERK protein level incubated for 4 to 12 hrs by Western blotting analysis. It counts as functional, cell-based. Particulars: time 4-12 hrs, TDE = time-dependent effect. In general terms: A western blot detects proteins with antibodies after separation by electrophoresis.

The test system of data set [18] is KYSE-150 cell line. The data set is described as follows: Induction of apoptosis in human KYSE-150 cell line assessed as effect on ratio of ERK phosphorylation incubated for 4 to 12 hrs by Western blotting analysis. It counts as functional, cell-based. Particulars: time 4-12 hrs.
Data set [19] has as its system KYSE-150 cell line. Kind of data set: Induction of apoptosis in human KYSE-150 cell line assessed as effect on ratio of AKT phosphorylation incubated for 4 to 12 hrs by Western blotting analysis. It counts as functional, cell-based. Particulars: time 4-12 hrs.
In data set [20] the test system is NES-G4T. The data set is described as follows: Induction of apoptosis in human NES-G4T cells assessed as effect on ratio of ERK phosphorylation incubated for 4 to 12 hrs by Western blotting analysis. Particulars: time 4-12 hrs. It counts as functional, cell-based.
The test system of data set [21] is NES-G4T. Kind of data set: Induction of apoptosis in human NES-G4T cells assessed as effect on ratio of AKT phosphorylation incubated for 4 to 12 hrs by Western blotting analysis. Particulars: time 4-12 hrs. It counts as functional, cell-based.

Take `COc1ccc(/C=C2\S/C(=N\c3ccccc3)N(C)C2C)cc1` (stereo not given): the IC50 in [1] turned out to be 0.5 µM.

On to `CNC(C)C#Cc1ccc(OC)cc1` (stereo not given), for which, in data set [1], the IC50 was determined as 0.5 µM.

On to `COc1ccc(/N=C2/NC(C)(C)/C(=C/c3ccc(Br)cc3)S2)cc1`, for which the IC50 in data set [2] came to 14.2 µM.

Consider `Cc1ccc(/N=C2/NC(C)(C)/C(=C/c3ccc(Br)cc3)S2)cc1Cl`, for which the IC50 in data set [2] is 65.4 µM.

For `COc1ccc(/N=C2/NC(C)(C)/C(=C/c3ccc(Br)cc3)S2)c([N+](=O)[O-])c1`, the IC50 in [2] amounted to 16.8 µM; in [4] it was 10.1 µM. In data set [3], this compound returned an inhibition at 10 µM of 71%. Also, the IC50 at 72 h in data set [5] came out at 13 µM; in data set [6] it was 202 µM. Also, the Activity entry in data set [7] is “Dose-Dependent Effect”; in data set [8], “Dose-Dependent Effect”; in data set [9] it was “Toxic”; in data set [10], “Toxic”; in [17] it was “Tde”. The outcome in [11], in data set [12], in data set [13], in [14], in data set [15] and in data set [16] was Active. The result in data set [18], in [19], in data set [20] and in data set [21] was inactive.

Turning to `CC1(C)N/C(=N/c2ccc([N+](=O)[O-])cc2)S/C1=C\c1ccc(Br)cc1`, in [2], the IC50 is 31.5 µM.

Regarding `CC1(C)N/C(=N/c2ccc(Cl)cc2)S/C1=C\c1ccc(Br)cc1`, the IC50 in [2] was 64.2 µM.

`CC1(C)N/C(=N/c2ccc(F)cc2)S/C1=C\c1ccc(Br)cc1`: the IC50 in data set [2] came to 10.6 µM.

Turning to `CC1(C)N/C(=N/c2ccc(Br)cc2)S/C1=C\c1ccc(Br)cc1`, in data set [2], the IC50 worked out at 13.2 µM.

On to `CC1(C)N/C(=N/c2ccccc2)S/C1=C\c1ccc(Br)cc1`, for which the IC50 in data set [2] is 18.6 µM.

As for `Cc1ccc(/N=C2/NC(C)(C)/C(=C/c3ccc(Br)cc3)S2)cc1`, the IC50 in [2] came out at 64.3 µM.

Usually IC50 stands for the concentration that inhibits the measured activity by half. One may read the inhibition as the drop in the measured response relative to a control, in per cent. Lower therefore signals little suppression.
